According to patent US20130158041A1, “Tyrosine Kinase Inhibitors” (priority 2010, published 2013):

Test system: HGF-dependent scattering phenotype of HPAF-II cells
Test: HPAF scatter assay
Format: cell-based
Conditions: Homo sapiens, 4 ng/ml HGF, 22 hrs, read-out: inhibitory activity (IC50), scattering phenotype
Experimental: The ability of compounds to inhibit the HGF-dependent scattering phenotype of HPAF-II cells was measured using a modified version of the assay described by Chan et al. 2008 (Chan et al. J. Biomolec. Screening 2008; 13:847-854). Briefly, HPAF-II cells (ATCC #CRL1997) were plated in 50 uL DMEM (#11995)+10% FBS+P/S at a density of 3,000 cells/well in Costar black clear bottom 384-well plates [Product no. 3712] and incubated at 37° C. overnight. The next day, […] of serially diluted compound in DMSO was added to each well in the cell plate to give a nine-point 1:3 dilution series with final concentrations ranging from 20 uM to 3 nM. Cells were preincubated with compound at 37° C. for one hour. To stimulate the scattering phenotype, 10 uL of 24 ng/ml HGF (R&D Systems 294-HGN) was next added to each well, giving a final concentration of 4 ng/ml HGF. Cells were incubated with both compound and HGF at 37° C. for an additional 22 hrs. Control […] wells without compound treatment and control wells without HGF or compound were included on each plate. Next, to visualize the cells, each plate was washed in PBS 1×, fixed in ice cold methanol for 3 min at RT, washed in PBS 3×, stained with Hoechst (1:2500) in PBS/0.1% Triton for 15 min in the dark, and finally washed in PBS 4× before imaging on an INCell Analyzer 1000 (GE Healthcare). Individual cell by cell SOI internuclear distance information was exported and then processed using a Pipeline Pilot (Accelrys) protocol to calculate the percentage of scattered cells. The percent inhibition of the scattering phenotype was calculated relative to cells without compound treatment, plotted against the log of compound concentration and then fit to a four parameter logistic fit to obtain IC50 values.

Row | SMILES | IC50 [nM]
1 | COCCOc1cnc(-c2cccc(Cc3nn(-c4cnn(C)c4)ccc3=S)c2)nc1 [Example 3, 3-{3-[5-(2-methoxyethoxy)pyrimidin-2-yl]benzyl}-1-(1-methyl-1H-pyrazol-4-yl)pyridazin-4(1H)-thione] | 15 to 550
2 | CCCn1cnc(-c2cccc(Cc3nn(-c4cnn(CC)c4)ccc3=S)c2)n1 [Example 5, 1-(1-ethyl-1H-pyrazol-4-yl)-3-[3-(1-propyl-1H-1,2,4-triazol-3-yl)benzyl]pyridazin-4(1H)-thione] | 15 to 550
3 | COCCOC(=O)Nc1cccc(Cc2nn(-c3cnn(C)c3)ccc2=S)c1 [Example 8, 2-methoxyethyl (3-{[1-(1-methyl-1H-pyrazol-4-yl)-4-thioxo-1,4-dihydropyridazin-3-yl]methyl}phenyl)carbamate] | 15 to 550

Next, values leading:

Row | IC50 [nM] | SMILES
4 | 15 to 550 | CCOc1cnc2ccc(OCc3nn(-c4cnn(C)c4)ccc3=S)cc2c1 [Example 19, 3-{[(3-Ethoxyquinolin-6-yl)oxy]methyl}-1-(1-methyl-1H-pyrazol-4-yl)pyridazin-4(1H)-thione]
5 | 15 to 550 | Cn1cc(-c2cnc3ccc(OCc4nn(-c5cnn(C)c5)ccc4=S)cc3c2)cn1 [Example 21, 1-(1-methyl-1H-pyrazol-4-yl)-3-({[3-(1-methyl-1H-pyrazol-4-yl)quinolin-6-yl]oxy}methyl)pyridazin-4(1H)-thione]
